Source: PMC8885877, “STAT3 inhibition suppresses adaptive survival of ALK-rearranged lung cancer cells through transcriptional modulation of apoptosis” (NPJ Precision Oncology, 2022)

Target: STAT3 (Homo sapiens, UniProt P40763)
Experiment: Alpha-based competitive binding assay with biotinylated recombinant STAT3 and FITC-labeled phospho-Tyr peptide
Description: Alpha-based competitive binding assay with biotinylated recombinant STAT3 and FITC-labeled phospho-Tyr peptide on STAT3 | inhibited the binding of phospho-Tyr peptide to the SH2 domain of STAT3 in a concentration-dependent manner with IC50 values

Sequence of STAT3 (P40763 2-770): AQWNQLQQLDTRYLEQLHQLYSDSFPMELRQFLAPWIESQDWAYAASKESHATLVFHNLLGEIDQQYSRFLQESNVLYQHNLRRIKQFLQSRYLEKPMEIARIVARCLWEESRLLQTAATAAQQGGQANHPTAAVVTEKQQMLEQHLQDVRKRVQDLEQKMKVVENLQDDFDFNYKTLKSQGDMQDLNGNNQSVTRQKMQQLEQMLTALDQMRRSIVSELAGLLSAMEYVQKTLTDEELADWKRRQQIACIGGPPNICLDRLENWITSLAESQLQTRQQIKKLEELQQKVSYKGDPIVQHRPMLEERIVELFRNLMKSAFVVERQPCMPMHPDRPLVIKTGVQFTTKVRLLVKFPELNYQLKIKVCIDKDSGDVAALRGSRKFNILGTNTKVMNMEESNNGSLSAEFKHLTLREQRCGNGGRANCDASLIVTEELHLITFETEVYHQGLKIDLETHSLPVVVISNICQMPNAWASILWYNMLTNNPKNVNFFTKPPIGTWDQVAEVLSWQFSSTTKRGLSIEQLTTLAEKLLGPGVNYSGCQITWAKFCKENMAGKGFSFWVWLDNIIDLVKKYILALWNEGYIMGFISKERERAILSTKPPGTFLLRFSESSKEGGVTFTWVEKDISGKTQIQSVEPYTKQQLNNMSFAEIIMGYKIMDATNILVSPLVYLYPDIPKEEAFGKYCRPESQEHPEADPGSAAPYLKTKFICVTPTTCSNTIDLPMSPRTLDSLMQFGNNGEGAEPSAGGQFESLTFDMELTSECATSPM

YHO-1701
IC50: 2500 nM
